Measured values: PubChem BioAssay AID248 (DTP/NCI, 2004)
Values joined by “and” are separate entries in the source; they are usually repeats but may differ in a detail not shown here. Equal values may be shown once. Toxic doses and inconclusive results are not listed. Cut-off read from the data, not from the text of the source: active = T/C of 150% or more; inactive = T/C below 125%.

Tested on: L1210 leukemia ip in BDF1 mice, survival T/C
Assay: NCI In Vivo Anticancer Drug Screen. Data for tumor model L1210 Leukemia (intraperitoneal) in B6D2F1 (BDF1) mice
Settings: endpoint: mean survival time, higher = longer survival
Outline: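 Ratio derived from survival: compound-dosed mice over vehicle-dosed mice, all bearing a transplantable tumor.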

[1] = dose: 100.0 mg/kg/injection, schedule: Q04DX003 (ip), vehicle: Klucel (hydroxypropylcellulose) (HPC)
[2] = dose: 200.0 mg/kg/injection, schedule: Q04DX003 (ip), vehicle: Klucel (hydroxypropylcellulose) (HPC)
[3] = dose: 400.0 mg/kg/injection, schedule: Q04DX003 (ip), vehicle: Klucel (hydroxypropylcellulose) (HPC)
[4] = dose: 100.0 mg/kg/injection, schedule: Q04DX003 (ip), vehicle: saline
[5] = dose: 200.0 mg/kg/injection, schedule: Q04DX003 (ip), vehicle: saline
[6] = dose: 400.0 mg/kg/injection, schedule: Q04DX003 (ip), vehicle: saline
[7] = dose: 100.0 mg/kg/injection, schedule: Q01DX009 (ip), vehicle: Klucel (hydroxypropylcellulose) (HPC)
[8] = dose: 200.0 mg/kg/injection, schedule: Q01DX009 (ip), vehicle: Klucel (hydroxypropylcellulose) (HPC)
[9] = dose: 100.0 mg/kg/injection, schedule: Q01DX001 (ip), vehicle: saline
[10] = dose: 200.0 mg/kg/injection, schedule: Q01DX001 (ip), vehicle: saline
[11] = dose: 400.0 mg/kg/injection, schedule: Q01DX001 (ip), vehicle: saline
[12] = dose: 50.0 mg/kg/injection, schedule: Q04DX003 (ip), vehicle: Klucel (hydroxypropylcellulose) (HPC)
[13] = dose: 25.0 mg/kg/injection, schedule: Q04DX002 (ip), vehicle: Klucel (hydroxypropylcellulose) (HPC)
[14] = dose: 50.0 mg/kg/injection, schedule: Q04DX002 (ip), vehicle: Klucel (hydroxypropylcellulose) (HPC)
[15] = dose: 100.0 mg/kg/injection, schedule: Q04DX002 (ip), vehicle: Klucel (hydroxypropylcellulose) (HPC)
[16] = dose: 100.0 mg/kg/injection, schedule: Q01DX001 (ip), vehicle: saline with Tween-80
[17] = dose: 200.0 mg/kg/injection, schedule: Q01DX001 (ip), vehicle: saline with Tween-80
[18] = dose: 100.0 mg/kg/injection, schedule: Q04DX003 (ip), vehicle: saline with Tween-80
[19] = dose: 200.0 mg/kg/injection, schedule: Q04DX003 (ip), vehicle: saline with Tween-80
[20] = dose: 400.0 mg/kg/injection, schedule: Q04DX003 (ip), vehicle: saline with Tween-80

Measured: T/C

Clc1ccc(/C=C/c2nc(Cl)c(-c3ccc(Cl)cc3)c(Cl)n2)cc1
inactive: dose: 75.0 mg/kg/injection, schedule: Q01DX001 (ip), vehicle: saline 105 % of control | dose: 150.0 mg/kg/injection, schedule: Q01DX001 (ip), vehicle: saline 92 % of control | dose: 150.0 mg/kg/injection, schedule: Q04DX003 (ip), vehicle: Klucel (hydroxypropylcellulose) (HPC) 113 % of control | dose: 300.0 mg/kg/injection, schedule: Q01DX001 (ip), vehicle: saline 97 % of control | dose: 300.0 mg/kg/injection, schedule: Q04DX003 (ip), vehicle: Klucel (hydroxypropylcellulose) (HPC) 92 % of control

Cc1cccc2c(C)c3cccc[n+]3cc12
inactive: dose: 2.0 mg/kg/injection, schedule: Q01DX Z (ip), vehicle: carboxymethylcellulose (CMC) 113 % of control | dose: 4.0 mg/kg/injection, schedule: Q01DX Z (ip), vehicle: carboxymethylcellulose (CMC) 110 % of control | dose: 8.0 mg/kg/injection, schedule: Q01DX Z (ip), vehicle: carboxymethylcellulose (CMC) 113 % of control and 123 % of control | dose: 16.0 mg/kg/injection, schedule: Q01DX Z (ip), vehicle: carboxymethylcellulose (CMC) 115 % of control and 119 % of control

NNC(=O)NN
inactive: dose: 100.0 mg/kg/injection, schedule: Q01DX009 (ip), vehicle: saline with Tween-80 87 % of control | dose: 200.0 mg/kg/injection, schedule: Q01DX009 (ip), vehicle: saline with Tween-80 90 % of control | dose: 400.0 mg/kg/injection, schedule: Q01DX009 (ip), vehicle: saline with Tween-80 87 % of control

O=S(=O)(Nc1ccc2ccccc2c1)c1cccc2cccnc12
inactive: [1] 98 % of control | [2] 93 % of control | [3] 95 % of control

CC(O)(C(=O)O)c1ccccc1 (centres undefined) (tested in a mixture with another compound)
inactive: dose: 100.0 mg/kg/injection, schedule: Q01DX009 (ip), vehicle: other 94 % of control | [4] 92 % of control | dose: 200.0 mg/kg/injection, schedule: Q01DX009 (ip), vehicle: other 98 % of control | [5] 103 % of control | dose: 400.0 mg/kg/injection, schedule: Q01DX009 (ip), vehicle: other 102 % of control | [6] 89 % of control

ClC(Cl)(Cl)c1cccc(C(Cl)(Cl)Cl)c1
inactive: [7] 121 % of control | [1] 105 % of control | [8] 101 % of control | [2] 95 % of control | [3] 95 % of control

NCC(=O)c1c[nH]c(=O)[nH]c1=O
inactive: dose: 25.0 mg/kg/injection, schedule: Q01DX001 (ip), vehicle: saline 107 % of control | dose: 50.0 mg/kg/injection, schedule: Q01DX001 (ip), vehicle: saline 100 % of control | [9] 97 % of control and 102 % of control | [10] 115 % of control | [11] 102 % of control

O=C(O)CCc1ccncc1
inactive: dose: 100.0 mg/kg/injection, schedule: Q04DX002 (ip), vehicle: saline 100 % of control | dose: 200.0 mg/kg/injection, schedule: Q04DX002 (ip), vehicle: saline 122 % of control | dose: 400.0 mg/kg/injection, schedule: Q04DX002 (ip), vehicle: saline 103 % of control

CC(=O)Nc1cc2c(cc1[N+](=O)[O-])-c1ccc(F)cc1C2
inactive: [12] 104 % of control | dose: 100.0 mg/kg/injection, schedule: Q01DX001 (ip), vehicle: carboxymethylcellulose (CMC) 94 % of control | [1] 96 % of control | dose: 200.0 mg/kg/injection, schedule: Q01DX001 (ip), vehicle: carboxymethylcellulose (CMC) 96 % of control | [2] 100 % of control | dose: 400.0 mg/kg/injection, schedule: Q01DX001 (ip), vehicle: carboxymethylcellulose (CMC) 91 % of control

CCOC(=O)/C(C#N)=C\c1ccc2n1Cc1cc3c(cc1N(C(C)=O)C2)OCO3
inactive: [13] 102 % of control | [14] 95 % of control | [15] 98 % of control

CCOCc1cnc(C)nc1N
inactive: [16] 94 % of control | [17] 94 % of control

CCCCC(=O)NCCc1ccc2c([nH]c3ccccc32)c1C
inactive: [4] 96 % of control | [5] 104 % of control | [6] 96 % of control

Cn1c(=O)c2c(nc(OCC3CC4CCC3C4)n2C)n(C)c1=O (centres undefined)
inactive: [9] 96 % of control | [10] 108 % of control | [11] 108 % of control

C/C1=C/CCCCCC1
inactive: [9] 90 % of control | dose: 100.0 mg/kg/injection, schedule: Q01DX009 (ip), vehicle: saline 96 % of control | [4] 96 % of control | [10] 101 % of control | dose: 200.0 mg/kg/injection, schedule: Q01DX009 (ip), vehicle: saline 89 % of control | [5] 101 % of control | dose: 400.0 mg/kg/injection, schedule: Q01DX009 (ip), vehicle: saline 94 % of control | [6] 98 % of control

CSCCNC(=O)CS(=O)(=O)c1ccc(N)cc1
inactive: [18] 97 % of control | [19] 97 % of control | [20] 97 % of control

CN(C)C(=S)Oc1ccc(C(F)(F)F)cc1
inactive: [1] 95 % of control | [2] 93 % of control | [3] 101 % of control

C[C@]12CC[C@H]3[C@@H](CC[C@]4(O)C[C@@H](O)CC[C@]34/C=N/O)[C@@]1(O)CC[C@@H]2C1=COC(=O)C1
inactive: dose: 1.87 mg/kg/injection, schedule: Q01DX009 (ip), vehicle: carboxymethylcellulose (CMC) 93 % of control | dose: 3.75 mg/kg/injection, schedule: Q01DX009 (ip), vehicle: carboxymethylcellulose (CMC) 104 % of control | dose: 7.5 mg/kg/injection, schedule: Q01DX009 (ip), vehicle: carboxymethylcellulose (CMC) 106 % of control | dose: 30.0 mg/kg/injection, schedule: Q01DX009 (ip), vehicle: carboxymethylcellulose (CMC) 104 % of control | dose: 60.0 mg/kg/injection, schedule: Q01DX009 (ip), vehicle: carboxymethylcellulose (CMC) 93 % of control

C#CCOP(=O)(C#CC)OCC#C
inactive: dose: 25.0 mg/kg/injection, schedule: Q04DX003 (ip), vehicle: Klucel (hydroxypropylcellulose) (HPC) 93 % of control | [12] 97 % of control | [1] 98 % of control | [18] 95 % of control

CC(=O)Nc1ccc(/C=N\NC(=O)Nc2ccccc2)cc1
inactive: [7] 90 % of control | [8] 90 % of control | dose: 400.0 mg/kg/injection, schedule: Q01DX009 (ip), vehicle: Klucel (hydroxypropylcellulose) (HPC) 91 % of control

Nc1ccc(CCC(=O)Nc2ccc(S(=O)(=O)F)cc2)c(Cl)c1
inactive: [16] 101 % of control | [17] 93 % of control | dose: 400.0 mg/kg/injection, schedule: Q01DX001 (ip), vehicle: saline with Tween-80 88 % of control

C=CCCCCCCCCC(=O)OC
inactive: [9] 100 % of control | [10] 96 % of control | [11] 100 % of control

Cc1cnc2c(=O)[nH]c(N)nc2n1
inactive: [13] 97 % of control | [14] 113 % of control | [15] 100 % of control

COc1ccc(CC2=NNC(Cc3ccc(OC)c(OC)c3)=NN2)cc1OC
inactive: [18] 91 % of control | [19] 91 % of control | [20] 93 % of control
